We go through four compounds from ChEMBL document CHEMBL6083183, “Discovery and Hit to Lead Optimization of Macrocyclic Peptides as Novel Tropomyosin Receptor Kinase A Antagonists” (J Med Chem, 2024).

Structures are written as SMILES. Active and inactive are the calls of the source. No cut-off for these calls is given here. Bridge positions count the residues as written; N and C are the ends. Square brackets hold non-standard residues; d marks the D form. Peptide text beside a SMILES is read from it. NMeF = CN[C@@H](Cc1ccccc1)C(=O)O; Sar = CNCC(=O)O

Data set [1] concerns the target T1, High affinity nerve growth factor receptor (Homo sapiens, UniProt P04629). Kind of data set: Binding affinity to Fc-tagged human TrkA extracellular domain by SPR method. For orientation: SPR reads the build-up and loss of mass on a sensor chip optically.
The next data set is filed under the species Homo sapiens. The experiment in a line: (§1) Inhibition of Fc-tagged human TrkA extracellular domain to biotinylated human NGF protein-protein interaction preincubated for 1 hr followed by NGF addition and measured after 3 hrs by ELISA. To be noted: time 4.0 hrs. In general terms: In an ELISA, binding on a coated surface is turned into a signal by an enzyme label.

Data set [2] in a line: Stability in rat serum assessed as half-life incubated for 22 to 24 hrs by LC-MS/MS method. In kind it is ADME, cell-free. To be noted: time 22-24 hrs.
In data set [3] the target is T1, High affinity nerve growth factor receptor. The experiment in a line: Inhibition of human TrkA assessed as beta-galactosidase activity pretreated with NGF followed by […] and measured after 180 mins by pathhunter assay.
The nature of data set [4]: Total clearance in Sprague-Dawley rat at 1 umol/kg, iv administered as cassette dose measured upto 6 hrs by LC-MS/MS method. The format is ADME, organism-based. Conditions: in vivo, dose 1 µmol/kg.
A short description of data set [5]: AUC in Sprague-Dawley rat at 1 umol/kg, iv administered as cassette dose measured upto 6 hrs by LC-MS/MS method. In kind it is ADME, organism-based. To be noted: in vivo, dose 1 µmol/kg.
Data set [6] is described as follows: Stability in human serum assessed as compound degradation incubated for 22 hrs by LC-MS/MS method. The format is ADME, cell-free.
The nature of data set [7]: Stability in human serum assessed as half-life incubated for 22 to 24 hrs by LC-MS/MS method. The format is ADME, cell-free. Conditions: time 22-24 hrs.
In data set [8] the test system is Rattus norvegicus. Kind of data set: Analgesic activity in rat Brennan's incision pain model assessed as reduction in pain at 10 mg/kg, iv administered 3 times at every 2 hrs and measured after 6 hrs. The format is functional, organism-based.
Data set [9] relates to Rattus norvegicus. The experiment in a line: Analgesic activity in iv dosed rat Brennan's incision pain model assessed as reduction in pain administered 3 times at every 2 hrs and measured after 6 hrs. To be noted: dose 3-30 mg/kg. The format is functional, organism-based.
For data set [10], the system named is Rattus norvegicus. Kind of data set: Analgesic activity in rat Brennan's incision pain model assessed as reduction in pain at 30 mg/kg, iv administered 3 times at every 2 hrs and measured after 6 hrs. In kind it is functional. Set-up: scale not given: the % may be the effect or the level left.
A short description of data set [11]: Toxicity in rat at 30 mg/kg, iv administered 3 times at every 2 hrs and measured after 6 hrs. Conditions: in vivo. The format is organism-based.
A short description of data set [12]: as §1.

T1 sequence (P04629 whole entry, the tested form may be a part): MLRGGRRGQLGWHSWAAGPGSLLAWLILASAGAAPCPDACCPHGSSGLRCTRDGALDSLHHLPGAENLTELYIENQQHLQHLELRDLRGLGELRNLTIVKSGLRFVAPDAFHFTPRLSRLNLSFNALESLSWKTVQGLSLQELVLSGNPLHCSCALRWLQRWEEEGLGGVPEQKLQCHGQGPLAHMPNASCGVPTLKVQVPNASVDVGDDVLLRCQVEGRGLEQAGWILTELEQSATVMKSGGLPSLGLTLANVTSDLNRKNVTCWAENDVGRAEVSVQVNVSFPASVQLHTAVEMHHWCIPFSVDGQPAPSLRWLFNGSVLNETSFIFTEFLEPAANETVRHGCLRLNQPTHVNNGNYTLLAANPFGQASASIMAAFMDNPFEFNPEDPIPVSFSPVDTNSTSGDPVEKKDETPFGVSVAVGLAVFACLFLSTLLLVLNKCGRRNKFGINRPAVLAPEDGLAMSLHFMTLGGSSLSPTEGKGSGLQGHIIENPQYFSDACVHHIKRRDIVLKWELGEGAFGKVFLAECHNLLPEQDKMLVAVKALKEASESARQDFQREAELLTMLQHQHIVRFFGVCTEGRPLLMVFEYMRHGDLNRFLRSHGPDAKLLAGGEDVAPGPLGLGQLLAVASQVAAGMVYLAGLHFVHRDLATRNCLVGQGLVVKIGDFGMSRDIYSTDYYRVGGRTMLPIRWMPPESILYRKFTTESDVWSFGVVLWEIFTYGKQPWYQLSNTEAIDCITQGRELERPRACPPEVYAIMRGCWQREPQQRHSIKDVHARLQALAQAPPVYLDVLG

As a reminder, the Kd is a measure of binding affinity in units of concentration. Turning to `CC[C@H](C)[C@@H]1NC(=O)CNC(=O)[C@H](Cc2ccc(O)cc2)NC(=O)[C@H](Cc2ccccc2)NC(=O)CNC(=O)[C@H](Cc2c[nH]cn2)NC(=O)[C@@H]2CCCN2C(=O)[C@H](Cc2ccc(O)cc2)NC(=O)[C@H](CC(C)C)NC(=O)[C@H](Cc2ccccc2)NC(=O)[C@H](Cc2ccccc2)NC(=O)CSC[C@@H](C(=O)NCC(N)=O)NC(=O)[C@H](C(C)C)NC1=O` ({CH2CO}-FFLYPHGFYGIVCG-NH2; thioether N-13), the Kd in data set [1] was 8.5 nM. Further, the inhibition result in the data set filed under Homo sapiens is “inactive”.
Broadly, the half-life is how long it takes for the measured level to halve. As a reminder, the IC50 is the concentration that gives 50% inhibition. The clearance is the volume of plasma or blood freed of the substance per unit of time. The term AUC denotes the area under the concentration-time curve, a measure of exposure. On to `CC(C)C[C@@H]1NC(=O)[C@H](CCCNC(=N)N)NC(=O)CNC(=O)[C@H](Cc2ccccc2)N(C)C(=O)CNC(=O)[C@H](Cc2c[nH]c3ccccc23)NC(=O)[C@H](Cc2ccc(O)cc2)NC(=O)[C@H](CO)NC(=O)[C@H](C(C)C)NC(=O)[C@H](CO)NC(=O)[C@H](CCCCN)NC(=O)[C@H](Cc2ccccc2)NC(=O)CSC[C@@H](C(=O)N(C)CC(N)=O)NC(=O)[C@H](Cc2c[nH]cn2)NC(=O)[C@H](CC(N)=O)NC(=O)[C@H](Cc2ccc(O)cc2)NC(=O)[C@H](Cc2ccc(O)cc2)NC(=O)[C@H](CO)NC1=O` ({CH2CO}-FKSVSYWG[NMeF]GRLSYYNHC[Sar]-NH2; thioether N-18), for which the half-life in data set [2] is 11.3 h. Moreover, the IC50 in [3] worked out at 23 nM. This compound also gave a clearance in data set [4] of 66.2 mL/min/kg. Moreover, the AUC at 6 h in data set [5] was 0.305 µM·h. Besides, the Stability entry in data set [6] was “Unstable”.
On to `CC(C)C[C@@H]1NC(=O)[C@H](C(C)C)NC(=O)CNC(=O)[C@H](Cc2ccccc2)N(C)C(=O)CNC(=O)[C@H](Cc2c[nH]cn2)NC(=O)[C@H](Cc2ccc(O)cc2)NC(=O)[C@H](CCC(=O)O)NC(=O)[C@H](C(C)C)NC(=O)[C@H](CO)NC(=O)[C@H](CO)NC(=O)[C@H](Cc2ccccc2)NC(=O)CSC[C@@H](C(=O)NCC(N)=O)NC(=O)[C@H](Cc2c[nH]cn2)NC(=O)[C@H](CC(=O)O)NC(=O)[C@H](Cc2ccc(O)cc2)NC(=O)[C@H](Cc2c[nH]c3ccccc23)NC(=O)[C@H](C(C)C)NC1=O` ({CH2CO}-FSSVEYHG[NMeF]GVLVWYDHCG-NH2; thioether N-18), for which the half-life in data set [2] and in data set [7] was greater than 72 h in each case. Besides, in data set [3], the IC50 turned out to be 21 nM. In data set [4], this compound registered a clearance of 13.9 mL/min/kg. This compound also displayed an AUC at 6 h in data set [5] of 1.2 µM·h. In addition, the Activity entry with Rattus norvegicus [8] was “Active; Activity Comparable To 1 Mg/Kg Morphine”; in the data set on Rattus norvegicus [9], “Dose-dependent-effect”; with Rattus norvegicus [10] it was 40%; in data set [11] it was “Non-toxic”.
Consider `CC(C)C[C@@H]1NC(=O)[C@H](CC(N)=O)NC(=O)CNC(=O)[C@H](Cc2ccccc2)N(C)C(=O)CNC(=O)[C@H](Cc2c[nH]c3ccccc23)NC(=O)[C@H](Cc2ccc(O)cc2)NC(=O)[C@H](CO)NC(=O)[C@H](C(C)C)NC(=O)[C@H](CO)NC(=O)[C@H](CO)NC(=O)[C@H](Cc2ccccc2)NC(=O)CSC[C@@H](C(=O)NCC(N)=O)NC(=O)[C@H](Cc2c[nH]cn2)NC(=O)[C@H](CO)NC(=O)[C@H](Cc2ccc(O)cc2)NC(=O)[C@H](Cc2c[nH]c3ccccc23)NC(=O)[C@H](C(C)C)NC1=O` ({CH2CO}-FSSVSYWG[NMeF]GNLVWYSHCG-NH2; thioether N-18), for which the dissociation constant (Kd) in data set [1] was determined as 15.9 nM. The figures for the half-life in data set [2] and in data set [7] were 47.8 h and 9.3 h, respectively. The IC50 in [3] was found to be 425 nM; in data set [12], 10.8 nM.
